According to the NIST ThermoML archive (doi:10.1021/acs.jced.5b00288):
Where “and” joins values, the source holds several entries; their conditions need not be identical. Equal entries are not always repeated.

Experiment: excess molar enthalpy (molar enthalpy of mixing); xn = mol fraction of the nth substance listed
Details: 1060 K, 101 kPa, Liquid, Calvet calorimetry

[I][La]([I])[I] [lanthanum triiodide] + [I-].[K+]
Details	excess molar enthalpy
x1 = 0.048	-0.464 kcal/mol
x1 = 0.1	-0.973 kcal/mol
x1 = 0.152	-1.53 kcal/mol
x1 = 0.199	-1.64 kcal/mol and -1.93 kcal/mol
x1 = 0.246	-2.13 kcal/mol
x1 = 0.25	-1.76 kcal/mol
x1 = 0.304	-1.79 kcal/mol
x1 = 0.348	-1.89 kcal/mol
x1 = 0.354	-2.3 kcal/mol
x1 = 0.398	-1.93 kcal/mol

[I][La]([I])[I] [lanthanum triiodide] + [I-].[Na+]
Details	excess molar enthalpy [kcal/mol]
x1 = 0.0482	-0.189
x1 = 0.0991	-0.415
x1 = 0.1503	-0.462
x1 = 0.2	-0.678
x1 = 0.2477	-0.549
x1 = 0.296	-0.821
x1 = 0.3412	-0.655
x1 = 0.3968	-0.69
x1 = 0.3984	-0.763
x1 = 0.4454	-0.683
x1 = 0.4931	-0.497
x1 = 0.4966	-0.576
x1 = 0.5392	-0.605
